Results on eight compounds are retold here after PubChem BioAssay (NCI).

Among the test systems are HCT-15 colon; KM12 colon; SF-295 CNS; PC-3 prostate; HS 578T breast; T-47D breast; RPMI-8226 leukemia; SR leukemia; IGROV1 ovarian; OVCAR-5 ovarian.
Assay in all cases: inhibition of tumour cell growth, NCI panel, 48 h

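Tested at 5 concentrations; 48 h exposure; 96-well plates; endpoints linearly interpolated, else capped at highest concentration. Here, GI50 denotes the concentration required for 50% inhibition of growth. At the TGI there is no net growth.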

`NC(=O)c1cccc2c(N[C@H](CN3CCC3)c3ccc(Cl)c(C(F)(F)F)c3)ncnc12`: the GI50 is 0.947 µM in the assay on HCT-15 colon; 0.885 µM in the assay on KM12 colon; 0.293 µM in the assay with SF-295 CNS; 0.638 µM with PC-3 prostate; 0.191 µM in the assay with HS 578T breast; 0.101 µM in the assay on T-47D breast. Besides, the GI50 in the assay with RPMI-8226 leukemia is 2.69 µM; in the assay with SR leukemia it was 1.35 µM; in the assay with IGROV1 ovarian, 0.0989 µM; in the assay on OVCAR-5 ovarian, 1.77 µM. In addition, the TGI in the assay with HCT-15 colon was 10.7 µM; in the assay with KM12 colon it was 13.3 µM; with SF-295 CNS it was 2.88 µM; in the assay on PC-3 prostate, 12.8 µM; with HS 578T breast, 2.65 µM; in the assay with T-47D breast it was 2.47 µM. The TGI came to 9.06 µM in the assay with RPMI-8226 leukemia, 6.58 µM with SR leukemia, 2.63 µM with IGROV1 ovarian and 13.5 µM with OVCAR-5 ovarian.
For the compound `O=C(CCCn1c2c(sc3ccccc32)c(=O)n2nnc(-c3ccccc3)c12)NCCc1cnc[nH]1`, the GI50 in the assay on HCT-15 colon is 0.505 µM; in the assay on KM12 colon, 0.593 µM; with SF-295 CNS, 0.456 µM; in the assay on PC-3 prostate it was 0.0603 µM; with HS 578T breast it was 0.783 µM; with T-47D breast it was 0.638 µM. For the same compound, the GI50 in the assay on SR leukemia was 0.356 µM; in the assay on IGROV1 ovarian, 0.0997 µM; in the assay with OVCAR-5 ovarian, 0.0751 µM. For the same compound, the TGI turned out to be 2.14 µM with HCT-15 colon; 3.19 µM with KM12 colon; 2.11 µM with SF-295 CNS; 2.21 µM with PC-3 prostate; 2.19 µM in the assay with HS 578T breast; 10.5 µM in the assay with T-47D breast. In addition, the values for the TGI in the assay on SR leukemia, with IGROV1 ovarian and in the assay with OVCAR-5 ovarian were 5.61 µM, 2.07 µM and 1.51 µM, respectively.
For the compound `O=C1/C(=C/c2ccc([N+](=O)[O-])s2)Oc2cc(Cl)ccc21`, the GI50 is 0.276 µM with HCT-15 colon; 0.758 µM with KM12 colon; 4.46 µM with SF-295 CNS; 0.387 µM in the assay with PC-3 prostate; 0.519 µM with HS 578T breast; 1.5 µM in the assay on T-47D breast. Also, the GI50 in the assay with RPMI-8226 leukemia is 0.382 µM; in the assay with SR leukemia it was 0.303 µM; in the assay on IGROV1 ovarian, 0.941 µM. Besides, the TGI was 1.12 µM in the assay on HCT-15 colon; 4.56 µM with KM12 colon; over 100 µM in the assay on SF-295 CNS; 1.75 µM in the assay on PC-3 prostate; 5.43 µM with HS 578T breast; over 100 µM in the assay with T-47D breast. Besides, the values for the TGI in the assay with RPMI-8226 leukemia, with SR leukemia and in the assay with IGROV1 ovarian were 2.23 µM, 1.24 µM and 3.61 µM, respectively.
As to `CC(c1cc(Cl)ccc1O)c1cc(Cl)ccc1O`, the GI50 with HCT-15 colon was 4.54 µM; with KM12 colon it was 3.22 µM; with SF-295 CNS it was 2.3 µM; in the assay on PC-3 prostate, 3.73 µM; in the assay with HS 578T breast it was 2.74 µM; in the assay on T-47D breast, 3.85 µM. In addition, the GI50 with RPMI-8226 leukemia is 3.73 µM; in the assay with SR leukemia, 2.59 µM; in the assay on OVCAR-5 ovarian, 11.1 µM. The TGI in the assay with HCT-15 colon is 16.6 µM; in the assay on KM12 colon, 10.2 µM; in the assay with SF-295 CNS, 7.83 µM; in the assay with PC-3 prostate, 15 µM; in the assay on HS 578T breast it was 7.19 µM; with T-47D breast, 18.7 µM. Also, the TGI came to 9.89 µM with RPMI-8226 leukemia, 9.95 µM with SR leukemia and 26.7 µM with OVCAR-5 ovarian.
As to `CN1CC=C(c2cc(NC(=O)Nc3ccc(Oc4ccnc(NC(=O)C5CC5)c4)c(F)c3)cc(C(F)(F)F)c2)CC1`, the GI50 in the assay with HCT-15 colon is 1.08 µM; with KM12 colon, 0.0332 µM; in the assay with SF-295 CNS, 0.933 µM; in the assay with PC-3 prostate it was 0.242 µM; with HS 578T breast, 0.982 µM; in the assay with T-47D breast it was 1.37 µM. In addition, the GI50 in the assay with SR leukemia was 0.152 µM; with IGROV1 ovarian, 0.244 µM; in the assay on OVCAR-5 ovarian, 0.289 µM. In addition, the TGI amounted to 4.33 µM in the assay with HCT-15 colon; 0.68 µM in the assay on KM12 colon; 2.94 µM with SF-295 CNS; 1.25 µM in the assay on PC-3 prostate; 3.09 µM in the assay with HS 578T breast; 3.99 µM with T-47D breast. Also, the figures for the TGI in the assay on SR leukemia, in the assay with IGROV1 ovarian and with OVCAR-5 ovarian were 0.863 µM, 1.34 µM and 2.44 µM, respectively.
For `CCCCCCCCCCCCCC[n+]1ccccc1`, the GI50 in the assay on HCT-15 colon was 1.9 µM; with KM12 colon it was 0.855 µM; with SF-295 CNS, 0.9 µM; in the assay with PC-3 prostate it was 0.204 µM; with HS 578T breast, 1.59 µM; with T-47D breast, 0.486 µM. Further, the results for the GI50 in the assay with RPMI-8226 leukemia, in the assay with SR leukemia and with OVCAR-5 ovarian were 0.303 µM, 0.499 µM and 0.733 µM, respectively. In addition, the TGI in the assay on HCT-15 colon is 13.2 µM; with KM12 colon, 2.25 µM; in the assay with SF-295 CNS it was 2.62 µM; in the assay on PC-3 prostate, 0.774 µM; in the assay with HS 578T breast, 5.13 µM; in the assay on T-47D breast it was 7.54 µM. Besides, the TGI was 1.33 µM with RPMI-8226 leukemia, 2.94 µM with SR leukemia and 2.35 µM in the assay with OVCAR-5 ovarian.
On to `COc1ccc(/C=C/C(=O)c2c(O)ccc3c(C)c(C(=O)O)oc23)cc1`, for which the GI50 in the assay with HCT-15 colon is 28.2 µM; in the assay on KM12 colon, over 100 µM; in the assay on SF-295 CNS, 35.1 µM; in the assay on PC-3 prostate, 66 µM; with HS 578T breast, 39.7 µM; in the assay with T-47D breast it was 64.7 µM. For the same compound, the values for the GI50 in the assay on SR leukemia, in the assay on IGROV1 ovarian and in the assay with OVCAR-5 ovarian were 19.2 µM, over 100 µM and over 100 µM, respectively. Further, the TGI with HCT-15 colon, in the assay with KM12 colon, in the assay with SF-295 CNS, in the assay with PC-3 prostate, in the assay with HS 578T breast and in the assay on T-47D breast was over 100 µM in each case. Further, the TGI was 64.4 µM in the assay on SR leukemia, over 100 µM in the assay on IGROV1 ovarian and over 100 µM with OVCAR-5 ovarian.
For the compound `COC1=CC(c2ccc[nH]2)=N/C1=C\c1[nH]c(C)c(C(=O)CCC(=O)Oc2ccc3c(c2)CCC2C3CC[C@]3(C)[C@@H](O)CC[C@@H]23)c1C` (stereo partly specified), the GI50 in the assay on HCT-15 colon is 1.29 µM; in the assay with KM12 colon it was 3 µM; with SF-295 CNS, 4 µM; with PC-3 prostate, 3.8 µM; with HS 578T breast it was 3.17 µM; in the assay with T-47D breast it was 2.19 µM. In addition, the GI50 was 0.643 µM in the assay on SR leukemia, 4.47 µM in the assay on IGROV1 ovarian and 5.47 µM in the assay on OVCAR-5 ovarian. Moreover, the TGI is 4.18 µM with HCT-15 colon; over 100 µM in the assay with KM12 colon; 20.4 µM in the assay with SF-295 CNS; over 100 µM with PC-3 prostate; over 100 µM in the assay on HS 578T breast; over 100 µM in the assay on T-47D breast. Also, the TGI is 5.1 µM in the assay on SR leukemia, over 100 µM in the assay with IGROV1 ovarian and over 100 µM in the assay with OVCAR-5 ovarian.
